Consider 2 molecules from US9566252B2, “Method for the alleviation of dyspareunia in women” (HORMOS MEDICAL LTD., priority 2000, dated 2017).

One data set deals with vaginal dryness. The data set is described as follows: Vaginal dryness symptoms by visual analogue scale (subjective estimates). In kind it is in vivo, healthy postmenopausal female volunteers. The conditions noted are these: FIG. 2; for Effect on vaginal dryness, individuals' subjective estimate (visual analogue scale): change pre-treatment to 3 months, all ospemifene dosage levels (30, 60, 90 mg daily), raloxifene 60 mg daily. As to the method: The vaginal dryness symptoms were also assessed by using a visual analogue scale where the volunteers themselves recorded their subjective estimates. The scale is based on a 100-mm line on paper. The left end represents no symptom and the right end the worst possible symptom. The change from pre-treatment to 3 months estimates was assessed and considered to be indicative of the treatment efficacy.

The conditions of data set [1]: clinical studies. As to the method: (§1) Tolerability and pharmacokinetics were also assessed.
The next data set deals with endometrium. The conditions noted are these: for Increase in thickness of the endometrium, average: statistically not significant. As to the method: as §1
The subject of a further data set is sexual activity. The note with it: of 70 patients followed up for 6 weeks. An excerpt: In the clinical study, where the effects of ospemifene on quality of life and cardiovascular parameters were studied, the patients were asked for sexual activity. The questionnaire included “worsening” or “no effect” on sexual activity. Improvement on sexual activity was not asked. When 70 patients had been followed up for 6 weeks, 27 of them had spontaneously reported to the investigators increased sexual activity. Similar reports were independently obtained from different centers of the study.

The subject of another data set is vaginal epithelium. The conditions noted are these: for Change in maturity index for superficial cells (MI 3), mean: index 100 full estrogen, index 0 no estrogenicity; for Change in maturity index for parabasal cells (MI 1), mean: index 100 no estrogenicity, index 0 full estrogen; for Pathological changes in cervical smear samples: 3 months' treatment, any sample; for Change from baseline to post-treatment in karyopyknosis index for superficial cells, individual subjects: ospemifene 30, 60, 90 mg daily, raloxifene 60 mg daily, all cases except one.

The mark [2] stands for this setting: 30 mg daily perorally, 3 months.
[3] abbreviates: 60 mg daily perorally, 3 months.
Where [4] appears, read: 90 mg daily perorally, 3 months.

Where two headings read alike, the source gives them in different places.

Description for vaginal epithelium: Raloxifene (60 mg daily) was used as reference. […] There were 29 volunteers at each dose level, as well as in the raloxifene group. Ospemifene was administered in gelatine capsules containing either 30, 60 or 90 mg of ospemifene. […] The vaginal epithelium was assessed by karyopyknosis index which is a well known assessment method among the skilled persons. In this method, the vaginal fraction of the cervical smears is estimated as the percentage of the number of cells from different layers: the parabasal cell layer; the intermediate cell layer; and the superficial cell layer. Estrogenicity is seen by a shift towards superficial cell fraction. […] Samples were taken before and after the treatment (at 3 months).

On to `OCCOc1ccc(/C(=C(/CCCl)c2ccccc2)c2ccccc2)cc1` [Ospemifene, (deaminohydroxy)toremifene], for which, in the data set with vaginal dryness (60 mg daily, 3 months), the “Effect on vaginal dryness, comparison of dose levels” value is listed as “best result”. For the same molecule, the “Effect on vaginal dryness, individuals' subjective estimate (visual analogue scale)” value with vaginal dryness was “clear decreasing effect”. The Tolerability entry in data set [1] was “excellent tolerability”. Also, the “Increase in thickness of the endometrium, average” value is 0.2 mm in the data set on endometrium (30 mg daily, 3 months); 0.5 mm in the data set with endometrium (60 mg daily, 3 months); 0.5 mm in the data set with endometrium (90 mg daily, 3 months). Also, the “Estrogenic effect on endometrial histology” value with endometrium (30, 60, 90 mg daily, 3 months) is “weak estrogenic effect”. Also, the “Malignant findings in the endometrium” value with endometrium (30, 60, 90 mg daily, 3 months) was “no malignant findings”. Moreover, the “Measured values of endometrial thickness” value in the data set with endometrium (30, 60, 90 mg daily, all measured values) is “smaller than 8 mm”. Besides, the “Patients spontaneously reporting increased sexual activity” value in the data set on sexual activity is 27. Also, the entries for the “Change in maturity index for superficial cells (MI 3), mean” value in the data set on vaginal epithelium (setting [2]), in the data set on vaginal epithelium (setting [3]) and with vaginal epithelium (setting [4]) were “+12.4”, “+5.5” and “+12.5”, respectively. The “Change in maturity index for parabasal cells (MI 1), mean” value was −40 in the data set with vaginal epithelium (setting [2]), −26 with vaginal epithelium (setting [3]) and −48 with vaginal epithelium (setting [4]). Moreover, in the data set on vaginal epithelium, the “Pathological changes in cervical smear samples” value is listed as “No pathological changes”. The “Change from baseline to post-treatment in karyopyknosis index for superficial cells, individual subjects” value in the data set with vaginal epithelium (12 weeks' treatment) was below 40. In the data set on vaginal epithelium (30, 60, 90 mg daily, 3 months), the “Estrogenic effect in the cervical smear” value is “weak but statistically significant estrogenic effect”. The “Effect on vaginal atrophy” value in the data set on vaginal epithelium (30, 60 and 90 mg daily, 3 months, elderly female volunteers) was “significant decrease in vaginal atrophy”. Besides, in the data set with vaginal epithelium (one case in the 90 mg group, 12 weeks' treatment), the “Increase in karyopyknosis index for superficial cells, single highest case” value is on record as 45.

Take `O=C(c1ccc(OCCN2CCCCC2)cc1)c1c(-c2ccc(O)cc2)sc2cc(O)ccc12` [Raloxifene, raloxifene, reference compound]: the “Effect on vaginal dryness, individuals' subjective estimate (visual analogue scale)” value with vaginal dryness is listed as “only a minor decrease”. In addition, in the data set with vaginal epithelium (setting [3]), the “Change in maturity index for superficial cells (MI 3), mean” value is −0.3 and the “Change in maturity index for parabasal cells (MI 1), mean” value is on record as −2. The “Pathological changes in cervical smear samples” value in the data set with vaginal epithelium is “No pathological changes”. Besides, in the data set on vaginal epithelium (12 weeks' treatment), the “Change from baseline to post-treatment in karyopyknosis index for superficial cells, individual subjects” value is on record as “no one in the raloxifene group (FIG. 1D) had a significant change”.
